From patent US20070123699A1, “Peptide conjugate useful for cell nucleus molecular imaging and tumor therapy” (priority 2002, published 2007)

Key:
[1] = tested on: DU-145 prostate cancer cells; assay: MRI: DU-145 cell uptake and efflux of Gd^3+ conjugates (T1-weighted signal, relaxivity); assay type: cell-based, human
Procedure: (I) MRI: DU-145 Cell Uptake of the CNN—Gd^3+-Complex and CNRN—Gd^3+-Complex Compared to that of Magnevist®
DU-145 cells were harvested and divided into tubes (Falcon®, Becton Dickinson USA, Cat. No.: 35.2096) (Cell No.: 40×10^6 cells per tube). The CNN—Gd^3+-complex (Table 1, #1552a), the CNRN—Gd^3+-complex (Table 1, #1552b) and the Magnevist® were each dissolved in MEM in a concentration of 0.5 mM and were then incubated for 10, 20, 30 minutes up to 3 hours. […]
MR imaging used a 1.5-T whole body Siemens Magnetom Vision Plus with a standard circular polarized head coil. […] T1 and T2 relaxation-times within the pellets of the three tubes (CNN—Gd^3+, CNRN—Gd^3+, Magnevist) were measured to evaluate the intracellular relaxivity of the respective contrast agents (R=1/T1). The T1-relaxation time was measured by means of an inversion-recovery-sequence (TR: 5000 ms/TE: 76 ms/TI: 25-4000 ms, 17 different TI-values, scan-time 15×25 sec, FOV: 160 mm×160 mm, Matrix: 132×256, slice thickness: 7 mm, pixel size: 1.21×0.63 mm). T2 relaxation-time was measured by a multi-echo-sequence (TR: 5000 ms/16 TE-values: 30 ms-245 ms, FOV: 250 mm×250 mm, Matrix: 256×256, slice thickness: 5 mm, pixel size: 0.98×0.98 mm, scan time: 21 min 21 sec). […]

[2] = i.v. administered alkylating drug, brain tumor; cited from earlier work

SMILES | MRI signal change above that of DU-145 cells incubated solely in MEM ([1]; DU-145 cells, 0.5 mM, T1-weighted MRI) | relaxivity R (R=1/T1) within the DU-145 cell pellets ([1]; after incubation with contrast agent 0.5 mM) | fraction of drug in the blood passing the blood-brain barrier [2]
CNC[C@H](O)[C@@H](O)[C@H](O)[C@H](O)CO.CNC[C@H](O)[C@@H](O)[C@H](O)[C@H](O)CO.O=C([O-])CN(CCN(CC(=O)[O-])CC(=O)O)CCN(CC(=O)[O-])CC(=O)O.[Gd+3] [Magnevist, reference compound] | no signal change | 0.00069 | 
Cn1nnc2c(C(N)=O)ncn2c1=O [Temodal] |  |  | about 30%
